Consider five compounds from publication PMC5598073, “A novel and efficient fungal delignification strategy based on versatile peroxidase for lignocellulose bioconversion” (Biotechnology for Biofuels, 2017).

Where two headings read alike, the source gives them in different places.

Assay [1] deals with T1, VP.
T1 construct: native secreted enzyme purified from solid corn stover cultures; single band
The assay is described as follows: spectrophotometric oxidation, […] nm. The class given is biochemical, Physisporinus vitreus. As to conditions: 50 mM malonate pH 4.5, 0.1 mM H2O2, with or without 1 mM MnSO4 (not told per substrate).

The subject of assay [2] is T1, VP. The assay is described as follows: spectrophotometric oxidation, […] nm. The format is biochemical, Physisporinus vitreus. As to conditions: 50 mM malonate pH 4.5, 0.1 mM H2O2, with or without 1 mM MnSO4 (not told per substrate); read-out: K m (mol L^-1) / VP.
The subject of assay [3] is T2, Lac.
T2 construct: native secreted enzyme purified from solid corn stover cultures; single band
The assay is described as follows: spectrophotometric oxidation, […] nm. The class given is biochemical, Physisporinus vitreus. As to conditions: 50 mM malonate pH 4.5; read-out: K m (mol L^-1) / Lac.

Assay [4] relates to T2, Lac. The assay can be described thus: spectrophotometric oxidation, […] nm. The format is biochemical, Physisporinus vitreus. To be noted: 50 mM malonate pH 4.5; read-out: K m (mol L^-1) / Lac. This is another data set of the same source.
In assay [5] the test system is T1, VP. The assay can be described thus: spectrophotometric oxidation, […] nm. The class given is biochemical, Physisporinus vitreus. As to conditions: 50 mM malonate pH 4.5, 0.1 mM H2O2, with or without 1 mM MnSO4 (not told per substrate); read-out: K m (mol L^-1) / VP. This is another data set of the same source.
For assay [6], the system named is T1, VP. The assay is described as follows: spectrophotometric oxidation, […] nm. The format is biochemical, Physisporinus vitreus. To be noted: 50 mM malonate pH 4.5, 0.1 mM H2O2, with or without 1 mM MnSO4 (not told per substrate). This is another data set of the same source.
Assay [7] relates to VP. As to conditions: read-out: K m (mol L^-1) / VP; 50 mM malonate pH 4.5, 0.1 mM H2O2, with or without 1 mM MnSO4 (not told per substrate).
In assay [8] the test system is Lac. As to conditions: read-out: K m (mol L^-1) / Lac; 50 mM malonate pH 4.5.

Take `Nc1c(N=Nc2ccc(S(=O)(=O)CCOS(=O)(=O)O)cc2)c(S(=O)(=O)O)cc2cc(S(=O)(=O)O)c(N=Nc3ccc(S(=O)(=O)CCOS(=O)(=O)O)cc3)c(O)c12` [RB5]: the Km in the assay on VP [1] was found to be 14.2 µM.
`Cc1cccc(C)c1O` [2,6-DMP]: the Km with VP [2] worked out at 44 µM; in the assay on Lac [3], 280 µM.
For `COc1ccccc1O` [Guaiacol], the Km is 900 µM with Lac [4] and 130 µM in the assay on VP [5].
Turning to `COc1ccc(CO)cc1OC` [VA], the Km with VP [6] is 213 µM.
For the compound `CCn1c(=NN=c2sc3cc(S(=O)(=O)O)ccc3n2CC)sc2cc(S(=O)(=O)O)ccc21` [ABTS], the figures for the Km in the assay with VP [7] and with Lac [8] were 35 µM and 13 µM, respectively.
